The test system of test [1] is Influenza A virus. In words: Antiviral activity against Influenza A virus (A/Moscow/10/99 (H3N2)) harboring NA E119V mutant infected in dog MDCK cells assessed as reduction in virus replication incubated for 72 hrs by CCK8 assay. The class given is functional, organism-based. Background: Formazan colour is commonly taken as a measure of viable cells.
In test [2] the test system is Influenza A virus. In words: Antiviral activity against Influenza A virus (A/California/07/2009 (H1NI)) harboring NA H275Y mutant infected in dog MDCK cells assessed as reduction in virus replication incubated for 72 hrs by CCK8 assay. Type of test: functional, organism-based, A/California/07/2009(H1N1).
A short description of test [3]: Inhibition of Influenza A virus (A/California/07/2009 (H1N1)) neuraminidase N1 H275Y mutant using MUNANA as substrate preincubated for 30 mins followed by substrate addition by fluorescence method.
Test [4] is described as follows: Inhibition of Influenza A virus (A/Moscow/10/99 (H3N2)) neuraminidase N2 E119V variant using MUNANA as substrate preincubated for 30 mins followed by substrate addition by fluorescence method.
Test [5] deals with Influenza A virus. Put plainly: Protection against Influenza A virus (A/California/07/2009 (H1NI)) harboring NA H275Y mutant infected in Balb/c mouse at 4.2 to 8.4 uM/kg, IV administered once daily for 7 days starting from 24 hrs prior to viral infection. Type of test: functional, A/California/07/2009(H1N1). As to conditions: dose 4.2-8.4 µM/Kg.
Test [6] has as its system Influenza A virus. Put plainly: Protection against Influenza A virus (A/California/07/2009 (H1NI)) harboring NA H275Y mutant infected in Balb/c mouse at 8.4 uM/kg, IV administered once daily for 7 days starting from 24 hrs post to viral infection. Type of test: functional, A/Puerto Rico/8/1934(H1N1).

The structures appear in SMILES notation. Activity calls are given as the source filed them. No cut-off for these calls is given here.

`CC(=O)N[C@H]1[C@H]([C@H](O)[C@H](O)CO)OC(C(=O)O)=C[C@@H]1NC(=N)N` [ZANAMIVIR]: the EC50 (in general, the concentration giving half of the maximal effect) in the test on Influenza A virus [1] turned out to be 5240 nM; with Influenza A virus [2], 26.6 nM. Further, the values for the IC50 in test [3] and in test [4] were 1 nM and 10 nM, respectively.

In the case of `CC(=O)N[C@H]1[C@H]([C@H](OC(=O)NCCOCCOCCOCCOCCOCCOCCOCCOCCOCCOCCOCCOCc2cn(CCCCCCO[C@H]3CC[C@@]4(C)C(=CC[C@H]5[C@@H]6CC[C@H]([C@H](C)CCCC(C)C)[C@@]6(C)CC[C@@H]54)C3)nn2)[C@H](O)CO)OC(C(=O)O)=C[C@@H]1NC(=N)N`, the 50% effective concentration (EC50) worked out at 8260 nM in the test on Influenza A virus [1] (read-out: EC50) and 2600 nM with Influenza A virus [2]. Besides, the IC50 (usually the concentration needed to halve the response being measured) in test [3] amounted to 573 nM; in test [4], 8580 nM.

With `CC(=O)N[C@H]1[C@H]([C@H](OC(=O)NCCOCCOCCOCc2cn(CCCCCCO[C@H]3CC[C@@]4(C)C(=CC[C@H]5[C@@H]6CC[C@H]([C@H](C)CCCC(C)C)[C@@]6(C)CC[C@@H]54)C3)nn2)[C@H](O)CO)OC(C(=O)O)=C[C@@H]1NC(=N)N`, the values for the EC50 in the test with Influenza A virus [1] (read-out: EC50) and in the test on Influenza A virus [2] were 4810 nM and 653 nM, respectively. Also, the IC50 in test [3] was found to be 127 nM; in test [4], 773 nM.

In the case of `CC(=O)N[C@H]1[C@H]([C@H](OC(=O)NCCOCCOCCOCCOCCOCCOCc2cn(CCCCCCO[C@H]3CC[C@@]4(C)C(=CC[C@H]5[C@@H]6CC[C@H]([C@H](C)CCCC(C)C)[C@@]6(C)CC[C@@H]54)C3)nn2)[C@H](O)CO)OC(C(=O)O)=C[C@@H]1NC(=N)N`, the EC50 in the test with Influenza A virus [1] (read-out: EC50) was 422 nM; with Influenza A virus [2] it was 22 nM. Further, the Activity with Influenza A virus [5] (time 7 day, at 4.2 to 8.4 µmol/kg) was found to be 100%; in the test on Influenza A virus [6] (time 7 day, at 8.4 µmol/kg), 100%. For the same molecule, the IC50 in test [3] was determined as 22 nM; in test [4], 162 nM.

As for `CCCCCCn1cc(COCCOCCOCCOCCOCCOCCNC(=O)O[C@@H]([C@@H]2OC(C(=O)O)=C[C@H](NC(=N)N)[C@H]2NC(C)=O)[C@H](O)CO)nn1`, the EC50 in the test on Influenza A virus [1] (read-out: EC50) is 4730 nM; in the test with Influenza A virus [2] it was 612 nM. The values for the IC50 in test [3] and in test [4] were 30.3 nM and 296 nM, respectively.

As for `CCC(CC)O[C@@H]1C=C(C(=O)O)C[C@H](N)[C@H]1NC(C)=O` [OSELTAMIVIR CARBOXYLATE], the results for the EC50 in the test on Influenza A virus [1] (read-out: EC50) and in the test on Influenza A virus [2] were 30200 nM and 2610 nM, respectively. For the same molecule, the Activity result in the test with Influenza A virus [5] (A/California/07/2009(H1N1), time 7.0 day) is “inactive”; in the test on Influenza A virus [6] (A/Puerto Rico/8/1934(H1N1), time 7.0 day) it was “inactive”. In addition, the IC50 stood at 938 nM in test [3] and 22.4 nM in test [4].

Source of the values: ChEMBL document CHEMBL5034038, “Zanamivir-Cholesterol Conjugate: A Long-Acting Neuraminidase Inhibitor with Potent Efficacy against Drug-Resistant Influenza Viruses” (J Med Chem, 2021).
